# Values of other authors in US6562842B2, “Protease inhibitors” (SmithKline Beecham Corporation, priority 1995, dated 2003).
# Columns and labels:
# [1] = tested on: bone resorption; settings: measured by acute changes in serum calcium; rats on calcium deficient diets
# [2] = tested on: bone resorption; settings: mouse bone organ culture system
# [3] = tested on: bone resorption; settings: mouse calvariae
Molecule,prevention of bone resorption in vivo [1],prevention of bone resorption [2],inhibition of PFH stimulated bone resorption [3]
CC(=O)N[C@@H](CC(C)C)C(=O)N[C@@H](CC(C)C)C(=O)N[C@H](C=O)CCCNC(=N)N [leupeptin],effective at preventing bone resorption in vivo,prevent bone resorption,
"CC(C)C[C@H](NC(=O)[C@H]1O[C@@H]1C(=O)O)C(=O)NCCCCN=C(N)N [Example E-64, E-64]",effective at preventing bone resorption in vivo,,
cystatin,,,inhibits PFH stimulated bone resorption
C[C@H](NC(=O)[C@H](Cc1ccccc1)NC(=O)OCc1ccccc1)C(=O)C=[N+]=[N-] [Z-Phe-Ala-CHN2],,prevent bone resorption,
